Columns and labels:
[1] = Prediction of liver cell hypertrophy using SVM from post-translational modification data; parameters: species or system rat
rat liver protein = test: Two-dimensional gel electrophoresis of liver proteins after 28-day oral administration: difference of log2(αx/αc) between spots derived from one protein; format: in vivo; settings: oral 28 days
Method: 5-Weeks old male rats (F344, SPF strain) obtained from Charles River Laboratories Japan Inc. were divided into groups each consisting of three rats. To the rats of each chemical dosed group was forcibly administered orally a solution obtained by dissolving one of the chemicals shown in Tables 1 to 3, and to the rats of a vehicle control group was forcibly administered orally only a vehicle. The administration was conducted once a day for 28 days. On the 29th day from the start of administration, the liver of each rat was collected. A fragment was cut out from each liver and stored at −20° C. The protein collected from each rat was determined quantitatively by the Bradford method. Then, to the comparative sample collected from the chemical dosed group, the control sample collected from the vehicle control group, and a pool sample (which was a mixture of the comparative sample and the control sample) were added, at 0° C., Cy5, Cy3 and Cy2 (DMF solution, 1 ml) each of 200 pmol per […] of protein, and a labeling reaction was allowed to take place on ice for 30 minutes. After the completion of the reaction, an excessive amount of a Lysine solution (10 mM Lysis buffer solution, 1 ml) was added, followed by storage for 10 minutes to complete the reaction. Further, a x2 sample buffer [8 M urea, 4% (w/v) CHAPS, 20 mg/ml DTT, 2% (v/v) Pharmalytes] of same volume was added, followed by storage on ice for 10 minutes.
Then, the mixture of the resulting samples or each resulting sample was individually subjected to two-dimensional gel electrophoresis.
First-dimensional electrophoresis was conducted in Multiphor II (GE Helthcare Uk Ltd. Buckinghamshire, UK) using IPG (Immobilized pH Gradient) Strips (24 cm, pI3-10L) (GE Helthcare UK Ltd. Buckinghamshire, UK). A sample ([…] of protein) was added from a cup loading holder. Focussing was conducted by 40 kVh in total. After the electrophoresis, equilibration was made for 10 minutes each using a solution A obtained by adding 0.25% (w/v) of DTT to an equilibrating solution (50 mM Tris, pH 8.8, 6 M urea, 30% glycerol, 2% SDS) and a solution B obtained by adding 4.5% (w/v) of iodoacetamide to the equilibrating solution. Successively, second-dimensional electrophoresis was conducted in an Ettan DALT II system (GE Helthcare UK Ltd. Buckinghamshire, UK) using a self-made 12% uniform gel sandwiched between low-fluorescent glasses. Migration was conducted at 3 W (15° C.) overnight.
For each gel after migration, image capture was immediately conducted using Master Imager (GE Helthcare UK Ltd. Buckinghamshire, UK), at a wavelength corresponding to each Cy. The excitation wavelengths of Cy5, Cy3 and Cy2 were set at 625 nm, 480 nm and 425 nm, respectively, and their fluorescence wavelengths were set at 680 nm, 540 nm and 480 nm, respectively.
In the case of the sample obtained by mixing before electrophoresis, the recognition of spots of captured image and the quantitative determination and comparison between Cys in one gel were conducted using Decyder-DIA Soft (GE Helthcare UK Ltd. Buckinghamshire, UK). The matching of spots with the reference map of rat liver protein (2-D data base formed in-house by identifying rat liver 724 spots) was conducted using Decyder-BVA soft (GE Helthcare UK Ltd. Buckinghamshire, UK). When each sample after Cy labeling was independently subjected to electrophoresis, the quantitative determination of each spot and the matching of spots were conducted using PDQuest (Bio-Rad Laboratories, Inc.).
For the spots of the 127 proteins and their modified proteins, there was calculated a base 2 logarithm [log2(αx/αc)] of the ratio (αx/αc) of the expression amount (αx) of the comparative sample and the expression amount (αc) of the control sample. Then, a difference in logarithms was calculated between spots derived from one protein. The calculation of difference in logarithms was made for all combinations of spots derived from one protein. […]

liver cell = settings: rat, in vivo
[2] = in vivo; cited from earlier work

O=NN1CCOCC1 [N-nitrosomorpholine]
Prediction result [1]: −1 CORRECT
Difference of log2(αx/αc) (rat liver protein; ATP synthase alpha chain, spots 1064-1096, absolute value): 1.824
Difference of log2(αx/αc) (rat liver protein; Carbonate dehydrogenase III, spots 2098-2113, absolute value): 1.038
Difference of log2(αx/αc) (rat liver protein; Cytoskeleton I type keratin-19, spots 1174-1447, absolute value): 1.451
Difference of log2(αx/αc) (rat liver protein; Cytoskeleton II type keratin-8, spots 1068-1481, absolute value): 1.344
Difference of log2(αx/αc) (rat liver protein; Heat shock protein 60 kDa, spots 941-974, absolute value): 1.910
Difference of log2(αx/αc) (rat liver protein; Hydroxyglutaryl-CoA synthase, spots 1215-1216, absolute value): 0.948
Difference of log2(αx/αc) (rat liver protein; MAWD binding protein, spots 2032-2036, absolute value): 1.256
Difference of log2(αx/αc) (rat liver protein; Non-muscle type caldesmon, spots 628-654, absolute value): 1.618
Difference of log2(αx/αc) (rat liver protein; RIKEN cDNA 0610010D20, spots 1708-1753, absolute value): 1.349
Difference of log2(αx/αc) (rat liver protein; Transketorase, spots 789-813, absolute value): 1.074
Finding of hepatocyte hypertrpy (liver cell): −
pathology of liver cell hypertrophy in the liver (liver cell): no pathology of liver cell hypertrophy was seen
Carcinogenicity [2]: +

— patent US20090134028A1, “Method of Estimating Effect of Test Chemical on Living Organisms” (Chemicals Evaluation and Research Institute, priority 2005, published 2009)
